Our source for the EC50 values is US8119806B2, “Cicletanine derivatives” (Merck Sharp & Dohme Corp., priority 2008, dated 2012).

Like-named read-outs stand apart in the source and are kept apart here.

The subject of this assay is isolated rabbit thoracic aorta preparations. The experiment in a line: Vessel relaxation in isolated rabbit thoracic aorta rings precontracted with noradrenaline. To be noted: Oryctolagus cuniculus.
Where [1] appears, read: read-out: Vessel Relaxation Data ED50.
[2] abbreviates: read-out: vessel relaxation EC50.

For the molecule `Cc1ncc2c(c1OC(=O)C1C[C@H](O[N+](=O)[O-])[C@H](O[N+](=O)[O-])C1)CO[C@H]2c1ccc(Cl)cc1` (stereo partly drawn), under setting [1], the EC50 was 6.29 µM.
On the same count and under the same terms, as for `CO[C@H]1CC(C(=O)Oc2c(C)ncc3c2CO[C@H]3c2ccc(Cl)cc2)C[C@@H]1O[N+](=O)[O-]` (stereo partly drawn), the figure is 18.8 µM; as for `Cc1ncc2c(c1O)CO[C@H]2c1ccc(Cl)cc1`, 35.8 µM.
For `CC(=O)N[C@H](C(=O)O)C(C)(C)SN=O` (racemic) [SNAP, S-nitroso-N-acetylpenicillamine, reference compound], the EC50 under setting [1] came to 0.237 µM.
Regarding `Cc1ncc2c(c1OC(=O)O[C@H]1CO[C@H]3[C@@H]1OC[C@H]3O[N+](=O)[O-])COC2c1ccc(Cl)cc1` (stereo partly drawn) [Example 45], the EC50 under setting [2] is less than 50 µM.
In the case of `Cc1ncc2c(c1OC(=O)OC[C@H]1C[C@H](O[N+](=O)[O-])[C@H](O[N+](=O)[O-])C1)COC2c1ccc(Cl)cc1` (stereo partly drawn) [Example 39], under setting [2], the EC50 is less than 50 µM.
Still for that read-out and setting: as for `Cc1ncc2c(c1OC(=O)OC[C@@H]1C[C@H](O[N+](=O)[O-])[C@H](O[N+](=O)[O-])C1)COC2c1ccc(Cl)cc1` (stereo partly drawn) [Example 40], the figure is less than 50 µM.
For the molecule `CO[C@H]1C[C@H](C(=O)O)C[C@@H]1O[N+](=O)[O-]`, the EC50 under setting [1] was determined as 126 µM.
`CO[C@H]1C[C@@H](C(=O)Oc2c(C)ncc3c2CO[C@H]3c2ccc(Cl)cc2)C[C@@H]1O[N+](=O)[O-]` [Example 60, (3S)-3-(4-chlorophenyl)-6-methyl-1,3-dihydrofuro[3,4-c]pyridin-7-yl(1R,3S,4S)-3-methoxy-4-(nitrooxy)cyclopentanecarboxylate]: the EC50 under setting [2] is less than 50 µM.
